The source made the active and inactive calls.
Tests used:
[1] = A Cell Based Secondary Assay To Explore Cytotoxicity of Compounds that Sensitize Mycobacterium Tuberculosis to Beta-Lactam Antibiotics.; format: functional
[2] = cytotoxicity in HPDE-C7 cells, cell-based, fluorescence, HTS (AID 430); format: functional; conditions: Homo sapiens
[3] = cytotoxicity in KRAS-transformed pancreatic duct cells, primary screen, cell-based, fluorescence, HTS (AID 431); format: functional; conditions: Homo sapiens;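 also: cell line used: HPDE-C7K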
[4] = biological target: T1, Ubiquitin-conjugating enzyme E2 N (Homo sapiens, UniProt P61088); format: functional;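 also: Dose-response confirmation in a TR-FRET assay detecting UBC13-driven polyubiquitin chain formation, inhibition measured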
T1 sequence (P61088 whole entry): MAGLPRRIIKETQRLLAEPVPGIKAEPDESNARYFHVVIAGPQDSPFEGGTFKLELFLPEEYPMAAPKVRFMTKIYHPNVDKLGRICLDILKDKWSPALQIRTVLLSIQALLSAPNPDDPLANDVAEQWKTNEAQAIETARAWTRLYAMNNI

[5] = biological target: T2, Hexokinase HKDC1 (Homo sapiens, UniProt Q2TB90); experiment: HKDC1 hexokinase activators, dose response, biochemical, W721R variant (AID 504730); format: functional
T2 sequence (Q2TB90 whole entry): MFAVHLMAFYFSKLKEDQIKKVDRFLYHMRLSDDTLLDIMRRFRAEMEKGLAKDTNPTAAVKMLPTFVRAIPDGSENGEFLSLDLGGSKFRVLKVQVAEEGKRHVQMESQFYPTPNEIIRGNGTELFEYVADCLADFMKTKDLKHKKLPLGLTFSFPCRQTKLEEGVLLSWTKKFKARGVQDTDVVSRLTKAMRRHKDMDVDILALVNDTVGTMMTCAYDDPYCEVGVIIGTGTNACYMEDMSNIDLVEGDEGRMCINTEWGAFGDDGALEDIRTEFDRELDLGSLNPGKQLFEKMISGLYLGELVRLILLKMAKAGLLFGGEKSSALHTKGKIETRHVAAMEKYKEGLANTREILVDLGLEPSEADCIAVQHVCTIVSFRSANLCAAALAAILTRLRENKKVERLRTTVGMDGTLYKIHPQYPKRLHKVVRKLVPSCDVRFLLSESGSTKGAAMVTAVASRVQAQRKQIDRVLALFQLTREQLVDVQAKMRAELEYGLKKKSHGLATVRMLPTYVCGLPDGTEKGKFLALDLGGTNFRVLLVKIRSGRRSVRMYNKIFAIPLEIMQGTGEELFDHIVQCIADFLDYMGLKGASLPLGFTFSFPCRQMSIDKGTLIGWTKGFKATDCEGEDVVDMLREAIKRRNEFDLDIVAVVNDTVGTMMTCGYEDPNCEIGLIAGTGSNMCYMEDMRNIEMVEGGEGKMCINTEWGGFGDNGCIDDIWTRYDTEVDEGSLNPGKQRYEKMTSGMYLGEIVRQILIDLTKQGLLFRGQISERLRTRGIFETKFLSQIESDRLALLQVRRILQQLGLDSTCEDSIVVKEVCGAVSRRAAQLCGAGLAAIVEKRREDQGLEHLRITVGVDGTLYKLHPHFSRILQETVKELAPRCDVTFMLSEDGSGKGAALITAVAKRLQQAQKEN

[6] = tested on: Escherichia coli; experiment: microbe, parasite or virus in culture
[7] = biological target: T3, RNA-binding protein pos-1 (Caenorhabditis elegans, UniProt G5EF15); experiment: inhibitors of POS-1/mex-3 RNA binding, dose response, biochemical, fluorescence polarization (AID 1964);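 also: purified POS-1 fused to maltose binding protein made in E. coli; potency of compounds blocking POS-1 binding to fluorescent RNA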
T3 sequence (G5EF15 whole entry): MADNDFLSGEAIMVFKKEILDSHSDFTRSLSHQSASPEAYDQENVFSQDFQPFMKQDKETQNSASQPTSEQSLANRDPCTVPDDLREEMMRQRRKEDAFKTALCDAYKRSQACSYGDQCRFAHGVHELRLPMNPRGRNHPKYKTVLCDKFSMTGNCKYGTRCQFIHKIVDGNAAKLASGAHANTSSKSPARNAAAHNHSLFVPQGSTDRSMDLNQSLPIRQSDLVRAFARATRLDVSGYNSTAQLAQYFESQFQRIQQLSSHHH

[8] = biological target: T4, Zinc finger protein mex-5 (Caenorhabditis elegans, UniProt Q9XUB2); experiment: MEX-5/TCR-2 RNA interaction inhibitors, dose response, biochemical, C. elegans, fluorescence polarization (AID 1960)
T4 sequence (Q9XUB2 whole entry): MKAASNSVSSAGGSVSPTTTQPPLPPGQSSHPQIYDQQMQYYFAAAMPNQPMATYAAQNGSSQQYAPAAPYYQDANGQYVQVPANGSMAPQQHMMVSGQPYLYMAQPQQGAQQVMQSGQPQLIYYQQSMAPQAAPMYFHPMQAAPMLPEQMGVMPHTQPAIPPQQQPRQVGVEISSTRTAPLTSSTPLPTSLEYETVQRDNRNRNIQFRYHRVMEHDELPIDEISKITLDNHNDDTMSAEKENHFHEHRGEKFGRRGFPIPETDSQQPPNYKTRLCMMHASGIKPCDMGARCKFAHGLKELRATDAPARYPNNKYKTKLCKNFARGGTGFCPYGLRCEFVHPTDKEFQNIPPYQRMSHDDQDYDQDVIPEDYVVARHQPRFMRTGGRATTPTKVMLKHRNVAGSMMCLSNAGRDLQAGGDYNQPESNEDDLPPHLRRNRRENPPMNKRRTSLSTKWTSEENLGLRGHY

[9] = biological target: Intestinal-type alkaline phosphatase (Mus musculus, UniProt P24822); experiment: PubChem AID 488785; format: functional
Chain of Intestinal-type alkaline phosphatase (Mus musculus, UniProt P24822) (P24822 whole entry): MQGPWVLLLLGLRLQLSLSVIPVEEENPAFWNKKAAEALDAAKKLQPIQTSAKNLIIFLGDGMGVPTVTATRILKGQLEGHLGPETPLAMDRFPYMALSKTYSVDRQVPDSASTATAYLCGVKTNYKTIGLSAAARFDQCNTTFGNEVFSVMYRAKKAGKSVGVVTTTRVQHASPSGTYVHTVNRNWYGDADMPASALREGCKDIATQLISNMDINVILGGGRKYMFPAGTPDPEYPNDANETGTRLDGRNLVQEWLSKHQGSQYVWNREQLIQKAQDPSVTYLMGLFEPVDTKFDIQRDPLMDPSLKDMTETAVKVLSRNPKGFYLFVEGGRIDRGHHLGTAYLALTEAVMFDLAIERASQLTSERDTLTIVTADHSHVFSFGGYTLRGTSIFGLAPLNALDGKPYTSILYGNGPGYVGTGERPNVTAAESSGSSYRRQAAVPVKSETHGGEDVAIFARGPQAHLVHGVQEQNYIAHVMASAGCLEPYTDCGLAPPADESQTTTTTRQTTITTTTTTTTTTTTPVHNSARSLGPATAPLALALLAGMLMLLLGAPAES

[10] = biological target: T5, Alkaline phosphatase, tissue-nonspecific isozyme (Homo sapiens, UniProt P05186); experiment: TNAP enzyme inhibition by screening hits, dose response, selectivity assay for mouse IAP inhibitor project, biochemical, human TNAP, uHTS hits (AID 488906); format: functional
T5 sequence (P05186 whole entry): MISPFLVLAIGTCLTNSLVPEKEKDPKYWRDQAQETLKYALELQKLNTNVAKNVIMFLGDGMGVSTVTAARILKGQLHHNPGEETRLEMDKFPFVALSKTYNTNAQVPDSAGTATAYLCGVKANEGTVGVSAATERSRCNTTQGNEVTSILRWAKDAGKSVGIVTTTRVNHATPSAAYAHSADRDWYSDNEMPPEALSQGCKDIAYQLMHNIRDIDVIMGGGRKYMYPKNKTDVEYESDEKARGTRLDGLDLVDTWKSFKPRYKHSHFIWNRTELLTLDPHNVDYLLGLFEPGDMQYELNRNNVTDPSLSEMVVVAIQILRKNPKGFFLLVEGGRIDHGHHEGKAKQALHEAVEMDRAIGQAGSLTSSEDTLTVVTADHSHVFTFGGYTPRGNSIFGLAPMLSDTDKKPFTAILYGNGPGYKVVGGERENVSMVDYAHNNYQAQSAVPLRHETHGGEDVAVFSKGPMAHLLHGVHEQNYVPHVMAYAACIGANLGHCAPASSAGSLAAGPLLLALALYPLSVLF

[11] = biological target: Intestinal-type alkaline phosphatase (Homo sapiens, UniProt P09923); experiment: inhibition of human intestinal alkaline phosphatase – biochemical, dose response (AID 488876); format: functional
Chain of Intestinal-type alkaline phosphatase (Homo sapiens, UniProt P09923) (P09923 whole entry): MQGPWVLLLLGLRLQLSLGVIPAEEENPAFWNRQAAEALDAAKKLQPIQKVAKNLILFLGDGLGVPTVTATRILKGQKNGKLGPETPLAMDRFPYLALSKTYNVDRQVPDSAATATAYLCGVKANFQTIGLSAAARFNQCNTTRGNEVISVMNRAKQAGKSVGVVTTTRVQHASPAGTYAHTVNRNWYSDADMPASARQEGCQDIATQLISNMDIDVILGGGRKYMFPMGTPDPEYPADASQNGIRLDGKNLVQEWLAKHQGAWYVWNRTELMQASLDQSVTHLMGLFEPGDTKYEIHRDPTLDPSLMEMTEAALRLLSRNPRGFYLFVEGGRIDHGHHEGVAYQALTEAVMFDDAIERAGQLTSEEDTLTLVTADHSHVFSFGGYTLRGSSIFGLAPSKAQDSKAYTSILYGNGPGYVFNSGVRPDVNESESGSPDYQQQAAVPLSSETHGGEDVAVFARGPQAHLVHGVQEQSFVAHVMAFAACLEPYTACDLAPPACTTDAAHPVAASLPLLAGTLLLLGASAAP

[12] = biological target: Genome polyprotein (dengue virus type 2, UniProt P29990); experiment: Dengue-2 NS5 methyltransferase inhibitors, primary screen, biochemical, confirmation dose response (AID 588689); format: functional
Chain of Genome polyprotein (P29990 2492-3391 limits assumed): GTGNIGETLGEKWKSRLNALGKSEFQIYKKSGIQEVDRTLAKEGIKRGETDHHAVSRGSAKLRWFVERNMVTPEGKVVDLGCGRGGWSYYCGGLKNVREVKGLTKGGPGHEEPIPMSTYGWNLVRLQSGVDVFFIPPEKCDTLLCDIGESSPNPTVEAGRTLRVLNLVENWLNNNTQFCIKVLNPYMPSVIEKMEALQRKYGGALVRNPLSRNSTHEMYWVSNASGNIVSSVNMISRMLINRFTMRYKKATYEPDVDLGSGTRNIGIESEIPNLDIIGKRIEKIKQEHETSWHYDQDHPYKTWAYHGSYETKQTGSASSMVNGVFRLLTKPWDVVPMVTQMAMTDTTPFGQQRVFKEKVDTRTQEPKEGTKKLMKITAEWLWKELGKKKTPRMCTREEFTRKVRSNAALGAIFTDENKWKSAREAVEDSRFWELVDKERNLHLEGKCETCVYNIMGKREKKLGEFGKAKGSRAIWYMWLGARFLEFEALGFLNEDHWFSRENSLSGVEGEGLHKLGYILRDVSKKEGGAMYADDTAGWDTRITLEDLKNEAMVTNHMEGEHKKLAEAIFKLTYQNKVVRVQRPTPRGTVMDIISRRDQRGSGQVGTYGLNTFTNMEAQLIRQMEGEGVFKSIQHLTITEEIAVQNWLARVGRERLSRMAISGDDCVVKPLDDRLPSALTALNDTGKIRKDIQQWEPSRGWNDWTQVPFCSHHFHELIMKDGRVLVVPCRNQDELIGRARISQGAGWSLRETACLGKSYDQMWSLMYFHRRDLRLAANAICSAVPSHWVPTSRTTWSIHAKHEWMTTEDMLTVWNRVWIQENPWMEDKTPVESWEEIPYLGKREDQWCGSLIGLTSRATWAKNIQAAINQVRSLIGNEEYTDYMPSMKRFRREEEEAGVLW

[13] = biological target: DNA (cytosine-5)-methyltransferase 1 (Homo sapiens, UniProt P26358); experiment: DNMT1 methyltransferase inhibitors, confirmation, biochemical, fluorescent molecular beacon (AID 602386); format: functional
[14] = biological target: T6, Cytochrome P450 1A2 (Homo sapiens, UniProt P05177);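 also: PubChem cytochrome P450 panel assay, CYP1A2 panel member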
T6 sequence (P05177 whole entry): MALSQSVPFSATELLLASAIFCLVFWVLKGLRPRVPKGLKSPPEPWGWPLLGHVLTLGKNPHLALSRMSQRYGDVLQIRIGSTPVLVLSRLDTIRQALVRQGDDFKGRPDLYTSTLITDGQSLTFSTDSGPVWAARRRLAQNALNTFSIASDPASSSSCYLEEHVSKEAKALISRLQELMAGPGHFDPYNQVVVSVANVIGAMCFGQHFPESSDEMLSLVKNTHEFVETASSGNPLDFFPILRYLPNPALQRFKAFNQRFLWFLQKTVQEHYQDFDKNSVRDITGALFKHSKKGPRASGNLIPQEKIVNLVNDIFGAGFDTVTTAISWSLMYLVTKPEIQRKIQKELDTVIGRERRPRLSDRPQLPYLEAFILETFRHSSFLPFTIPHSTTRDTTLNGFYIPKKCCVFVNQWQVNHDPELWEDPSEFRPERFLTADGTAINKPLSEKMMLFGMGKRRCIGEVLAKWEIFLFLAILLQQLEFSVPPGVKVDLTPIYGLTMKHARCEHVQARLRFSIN

[15] = biological target: Cytochrome P450 2C9 (Homo sapiens, UniProt P11712)
Chain of Cytochrome P450 2C9 (P11712 whole entry): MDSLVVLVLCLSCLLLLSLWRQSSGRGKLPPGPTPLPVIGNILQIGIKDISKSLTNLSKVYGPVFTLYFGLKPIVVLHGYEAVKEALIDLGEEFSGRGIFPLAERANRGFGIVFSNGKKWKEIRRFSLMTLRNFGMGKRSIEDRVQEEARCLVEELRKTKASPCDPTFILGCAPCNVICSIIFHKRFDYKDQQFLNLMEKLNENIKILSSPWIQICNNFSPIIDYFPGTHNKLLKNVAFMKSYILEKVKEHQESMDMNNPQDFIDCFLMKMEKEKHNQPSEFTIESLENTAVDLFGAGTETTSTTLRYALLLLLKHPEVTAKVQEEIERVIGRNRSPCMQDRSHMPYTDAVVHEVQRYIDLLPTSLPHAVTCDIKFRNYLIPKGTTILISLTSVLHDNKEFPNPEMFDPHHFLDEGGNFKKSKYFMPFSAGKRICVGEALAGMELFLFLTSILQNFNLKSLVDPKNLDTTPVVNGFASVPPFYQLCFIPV

[16] = inhibitors of intracellular T. cruzi replication, confirmation, NIH3T3 host cells, beta-gal luminescence (AID 2044); format: functional, cell-based;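 also: intracellular parasites grown in NIH/3T3 mouse fibroblasts as host cells; luminescent beta-galactosidase reporter signal from transgenic T. cruzi replicating inside host cells; inhibitors lower the luminescence signal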
[17] = cytotoxicity toward NIH3T3 fibroblasts, dose response, counter-screen, cell-based, ATP luminescence, mouse fibroblasts (AID 2010); format: functional;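 also: cells exposed to compound for about 90 hours before reading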
[18] = biological target: T7, Microphthalmia-associated transcription factor (Homo sapiens, UniProt O75030); experiment: TRPM1 promoter luciferase signal decrease, dose response, MITF inhibitor project, cell-based, SK-MEL-5, cherry-picked, set 3 (AID 493073); format: functional
T7 sequence (O75030 whole entry): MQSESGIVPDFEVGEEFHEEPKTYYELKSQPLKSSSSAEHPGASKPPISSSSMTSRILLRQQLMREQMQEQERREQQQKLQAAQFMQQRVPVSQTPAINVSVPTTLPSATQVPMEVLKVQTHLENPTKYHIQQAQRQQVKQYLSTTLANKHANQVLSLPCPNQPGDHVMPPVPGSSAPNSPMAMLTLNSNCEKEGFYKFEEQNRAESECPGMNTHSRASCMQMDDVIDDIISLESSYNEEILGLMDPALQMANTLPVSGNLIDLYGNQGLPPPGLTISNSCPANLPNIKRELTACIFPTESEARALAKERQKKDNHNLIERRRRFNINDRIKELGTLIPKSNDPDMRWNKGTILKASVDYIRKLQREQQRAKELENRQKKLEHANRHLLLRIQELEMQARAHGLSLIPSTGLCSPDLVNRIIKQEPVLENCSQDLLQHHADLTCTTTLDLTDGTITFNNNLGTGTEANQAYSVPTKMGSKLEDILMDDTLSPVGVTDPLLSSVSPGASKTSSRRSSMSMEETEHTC

[19] = tested on: A-375; experiment: MITF: Counter assay: A375 proliferation Measured in Cell-Based System Using Plate Reader - 2084-03_Inhibitor_Dose_DryPowder_Activity. [Related pubchem assays (depositor defined):AID488944]; format: functional; conditions: Homo sapiens
[20] = Shn3 3'UTR reporter inhibitors, dose response, cell-based, Clone20 osteoblasts, firefly luciferase, cherry-picked (AID 624132); format: functional;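 also: firefly luciferase luminescence from reporter carrying the Shn3 3'UTR in osteoblasts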
[21] = HepG2 cell cytotoxicity, dose response, cytotoxicity control for Shn3 inhibitor project, CellTiter-Glo, cherry-picked (AID 624134); format: functional, cell-based
[22] = biological target: DNA dC->dU-editing enzyme APOBEC-3A (Homo sapiens, UniProt P31941); experiment: APOBEC3A DNA deaminase inhibitors, dose response, biochemical (AID 504722); format: functional
Chain of DNA dC->dU-editing enzyme APOBEC-3A (P31941 whole entry): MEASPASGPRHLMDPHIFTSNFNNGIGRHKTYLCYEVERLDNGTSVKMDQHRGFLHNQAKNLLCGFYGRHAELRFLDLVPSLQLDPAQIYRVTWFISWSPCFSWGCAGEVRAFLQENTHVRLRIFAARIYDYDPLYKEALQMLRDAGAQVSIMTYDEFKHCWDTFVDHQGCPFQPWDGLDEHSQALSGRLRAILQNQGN

[23] = biological target: DNA dC->dU-editing enzyme APOBEC-3G (Homo sapiens, UniProt Q9HC16); experiment: Dose Response confirmation of small molecule APOBEC3G DNA Deaminase Inhibitors via a fluorescence-based single-stranded DNA deaminase assay. [Related pubchem assays (depositor defined):AID493012, AID493028]; format: functional
Chain of DNA dC->dU-editing enzyme APOBEC-3G (Q9HC16 whole entry): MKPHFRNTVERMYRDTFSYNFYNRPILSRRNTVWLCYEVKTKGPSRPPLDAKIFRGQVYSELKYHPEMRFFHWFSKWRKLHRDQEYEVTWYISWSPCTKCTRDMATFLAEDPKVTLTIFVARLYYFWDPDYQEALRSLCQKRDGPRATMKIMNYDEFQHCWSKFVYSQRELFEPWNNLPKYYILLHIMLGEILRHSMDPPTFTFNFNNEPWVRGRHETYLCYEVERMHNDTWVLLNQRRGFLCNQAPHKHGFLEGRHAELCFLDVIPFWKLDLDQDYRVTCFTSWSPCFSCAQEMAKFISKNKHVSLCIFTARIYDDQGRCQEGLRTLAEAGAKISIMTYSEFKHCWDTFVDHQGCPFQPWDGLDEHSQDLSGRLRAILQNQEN

[24] = biological target: Bifunctional protein GlmU (Mycobacterium tuberculosis, UniProt P9WMN3); experiment: Inhibitors of Mycobacterial Glucosamine-1-phosphate acetyl transferase (GlmU). Secondary screen.; parameters: species or system Mycobacterium tuberculosis H37Rv
Chain of Bifunctional protein GlmU (P9WMN3 whole entry): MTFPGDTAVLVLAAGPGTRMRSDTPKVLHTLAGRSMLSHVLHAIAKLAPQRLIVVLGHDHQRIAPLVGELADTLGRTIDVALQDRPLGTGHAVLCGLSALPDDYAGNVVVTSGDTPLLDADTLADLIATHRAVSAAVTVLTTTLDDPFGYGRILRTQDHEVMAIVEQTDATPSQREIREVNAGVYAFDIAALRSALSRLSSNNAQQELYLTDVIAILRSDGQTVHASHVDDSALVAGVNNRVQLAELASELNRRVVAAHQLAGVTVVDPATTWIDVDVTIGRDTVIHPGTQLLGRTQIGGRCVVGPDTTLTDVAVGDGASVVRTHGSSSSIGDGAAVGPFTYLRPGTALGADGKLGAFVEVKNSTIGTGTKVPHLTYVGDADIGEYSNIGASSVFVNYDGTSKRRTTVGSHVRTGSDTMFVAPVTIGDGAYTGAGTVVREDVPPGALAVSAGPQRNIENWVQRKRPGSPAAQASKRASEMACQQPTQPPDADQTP

[25] = biological target: Induced myeloid leukemia cell differentiation protein Mcl-1 (Homo sapiens, UniProt Q07820); format: functional
Chain of Induced myeloid leukemia cell differentiation protein Mcl-1 (Q07820 whole entry): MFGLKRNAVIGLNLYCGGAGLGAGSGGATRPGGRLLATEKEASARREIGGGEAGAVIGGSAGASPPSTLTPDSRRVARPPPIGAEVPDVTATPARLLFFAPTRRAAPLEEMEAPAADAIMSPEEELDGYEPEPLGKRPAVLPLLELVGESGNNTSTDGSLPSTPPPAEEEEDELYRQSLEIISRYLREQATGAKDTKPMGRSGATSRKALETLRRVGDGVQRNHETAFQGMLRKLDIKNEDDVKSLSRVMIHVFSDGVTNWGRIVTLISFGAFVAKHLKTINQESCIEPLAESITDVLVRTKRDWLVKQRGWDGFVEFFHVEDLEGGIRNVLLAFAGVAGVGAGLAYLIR

[26] = biological target: T8, CAAX prenyl protease 2 (Saccharomyces cerevisiae S288c, UniProt Q03530); format: biochemical
T8 sequence (Q03530 whole entry): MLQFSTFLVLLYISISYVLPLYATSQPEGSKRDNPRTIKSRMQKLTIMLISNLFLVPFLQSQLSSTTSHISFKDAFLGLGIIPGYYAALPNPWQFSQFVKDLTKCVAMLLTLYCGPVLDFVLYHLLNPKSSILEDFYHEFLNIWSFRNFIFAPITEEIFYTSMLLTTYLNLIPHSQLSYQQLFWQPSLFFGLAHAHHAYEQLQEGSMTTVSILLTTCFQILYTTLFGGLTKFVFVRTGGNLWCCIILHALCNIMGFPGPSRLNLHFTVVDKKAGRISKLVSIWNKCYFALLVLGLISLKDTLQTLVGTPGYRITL

[27] = biological target: CAAX prenyl protease 1 (Saccharomyces cerevisiae S288c, UniProt P47154); experiment: Ste24 protease inhibitors, dose response, biochemical, S. cerevisiae, plate reader, cherry-pick (AID 488815)
Chain of CAAX prenyl protease 1 (P47154 whole entry): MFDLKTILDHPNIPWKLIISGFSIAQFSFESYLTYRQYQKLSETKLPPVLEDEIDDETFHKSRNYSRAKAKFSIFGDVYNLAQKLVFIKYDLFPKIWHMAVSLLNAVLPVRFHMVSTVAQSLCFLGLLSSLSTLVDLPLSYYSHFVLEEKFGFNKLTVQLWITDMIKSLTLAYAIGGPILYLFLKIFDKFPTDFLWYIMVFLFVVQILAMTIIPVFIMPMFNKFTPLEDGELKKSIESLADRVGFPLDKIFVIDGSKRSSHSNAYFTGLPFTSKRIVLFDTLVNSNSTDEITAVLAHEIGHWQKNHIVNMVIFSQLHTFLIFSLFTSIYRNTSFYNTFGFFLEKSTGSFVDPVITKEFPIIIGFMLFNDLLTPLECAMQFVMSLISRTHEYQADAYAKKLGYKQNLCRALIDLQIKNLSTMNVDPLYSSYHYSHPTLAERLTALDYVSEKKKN

Compound: CCN(CC)CCCNC(=O)c1c(O)c2ccccc2n(Cc2ccccc2)c1=O
- CC50 [1]: 32 µM (active)
- EC50 [2]: > 20 µM (not active)
- EC50 [3]: > 20 µM (not active)
- IC50 [4]: > 20 µM (inactive)
- EC50 [5]: > 80 µM (inactive)
- AC50 [6]: 23.5 µM (active)

Compound: CN1C(=O)NC(=O)/C(=C\c2ccc([N+](=O)[O-])o2)C1=O
- EC50 [7]: 33.3 µM (active)
- EC50 [8]: 20.6 µM (active)
- IC50 [9]: > 100 µM (inactive)
- IC50 [10]: > 100 µM (inactive)
- IC50 [11]: > 100 µM (inactive)
- IC50 [12]: 42.6 µM (active)
- IC50 [13]: 2.08 µM (active)

Compound: CS(=O)(=O)N1CCC2(CCN(c3ccccc3)CC2)CC1
- AC50 [14]: inconclusive
- AC50 [15]: inconclusive

Compound: Cc1ccc(-n2cc(CNCCCn3ccnc3C)c(-c3ccc(F)cc3)n2)cc1
- EC50 [16]: 1.77 µM (active)
- EC50 [17]: 14.4 µM (active)
- AC50 [18]: 7.58 µM (active)
- AC50 [19]: 21.2 µM (active)
- AC50 [20]: 20.6 µM (active)
- AC50 [21]: 16.7 µM (active)

Compound: Sc1nnc(-c2ccccn2)n1/N=C/c1ccc(Cl)cc1
- IC50 [22]: > 100 µM (inactive)
- IC50 [23]: 3.33 µM (active)

Compound: O=C1CSC(=S)N1/N=C/c1ccc(O)c(O)c1O
- EC50 [7]: 5.17 µM (inconclusive)
- EC50 [8]: 0.668 µM (inconclusive)
- IC50 [24]: 7.79 µM (active)
- IC50 [25]: 1.17 µM (active)
- IC50 [9]: 4.15 µM (active)
- IC50 [10]: 58.5 µM (active)
- IC50 [11]: > 100 µM (inactive)

Compound: COc1cc2c(cc1OC)C(C)=NC1(CCCCC1)C2
- AC50 [26]: 6.87 µM (active)
- AC50 [27]: 8.72 µM (active)

From ChEMBL document CHEMBL1201862, “PubChem BioAssay data set” (2004)
